The results in this text go back to the supplement of paper PMC6965134.

The series can be described thus: TIMS collisional cross section (CCS, N2) of the lipid ion; higher = larger ion cross section. Conditions: ionization mode: negative, one isomer drawn. On the procedure:
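Lipid extracts of human plasma (NIST SRM 1950), mouse liver or HeLa cells were separated by nanoflow C18 LC (30 min gradient) and analysed by TIMS-PASEF on a timsTOF Pro. Ion mobility was calibrated with the Agilent tuning mix (negative mode ions) and converted to collisional cross sections (Mason–Schamp, N2).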
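Note: lipids from MTBE extraction, five replicate injections per sample, 100 ms TIMS ramp spanning 0.6–1.95 Vs/cm², lipid identity assigned from PASEF MS/MS spectra.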

Regarding `CC/C=C\C/C=C\CC(O)/C=C/C=C\C/C=C\C/C=C\CCC(=O)O[C@H](CO/C=C\CCCCCCCCCCCCCC)COP(=O)(O)OCCN` (stereo partly drawn) [Oxidized PE 16:0@_22:6], where the note is “sample type: Human plasma, ion (formula + adduct): [C43H74NO8P-H] 1-”, the “TIMS collisional cross section” value is reported as 277.4 Å². Regarding `CCCCC/C=C/C=C\CCCCCCCC(=O)O[C@H](COC(=O)CCCCCCC/C=C\C/C=C/CCCCC)COP(=O)([O-])OCC[N+](C)(C)C` [PC 18:2_17:2], the “TIMS collisional cross section” value (sample type: Mouse Liver, ion (formula + adduct): [C43H78NO8P+HCOO] 1-) is recorded as 289.3 Å². `CC/C=C\C/C=C\C/C=C\C/C=C\CCCCCCC(=O)O[C@H](COCCCCCCCC/C=C\CCCCCC)COP(=O)([O-])OCC[N+](C)(C)C` [PC O- 16:1_20:4]: where the note is “sample type: Human plasma, ion (formula + adduct): [C44H80NO7P+HCOO] 1-”, the “TIMS collisional cross section” value worked out at 292.2 Å². With `CCCCCC/C=C\CCCCCCCC(=O)OC[C@H](COP(=O)(O)OCCN)OC(=O)CCCCCCC/C=C\CCCCCCC` [PE 16:1_17:1], the “TIMS collisional cross section” value (sample type: Mouse Liver, ion (formula + adduct): [C38H72NO8P-H] 1-) was found to be 263.2 Å². Regarding `CCCCCCCCCCCCC/C=C/[C@@H](O)[C@H](COP(=O)([O-])OCC[N+](C)(C)C)NC(=O)CCCCCCCCCCCCC` [SM d18:1_14:0@], the “TIMS collisional cross section” value (sample type: Human plasma, ion (formula + adduct): [C37H75N2O6P+HCOO] 1-) came to 280.6 Å². Consider `CC/C=C\C/C=C\C/C=C\C/C=C\C/C=C\CCCC(=O)O[C@H](COC(=O)CCCCCCC/C=C\CCCCCC)COP(=O)([O-])OCC[N+](C)(C)C` [PC 16:1_20:5], for which the “TIMS collisional cross section” value is recorded as 290.4 Å² (sample type: Human plasma, ion (formula + adduct): [C44H76NO8P+HCOO] 1-) and 290.4 Å² (sample type: Mouse Liver, ion (formula + adduct): [C44H76NO8P+HCOO] 1-). As for `CC/C=C\C/C=C\C/C=C\C/C=C\C/C=C\C/C=C\CCC(=O)OC[C@H](COP(=O)(O)OC[C@@H](O)CO)OC(=O)CCCCCCC/C=C\CCCCCC` [PG 22:6@_16:1], the “TIMS collisional cross section” value (sample type: Mouse Liver, ion (formula + adduct): [C44H73O10P-H] 1-) came out at 283 Å². On to `CCCCCCCCCCCCCCCCCCOC[C@H](COP(=O)(O)OCCN)OC(=O)CCCCCCCCCCCCCCCCCC` [PE O- 18:0@_19:0], for which the “TIMS collisional cross section” value (sample type: Human plasma, ion (formula + adduct): [C42H86NO7P+AcO] 1-) is 298 Å².

For the compound `CC/C=C\C/C=C\C/C=C\C/C=C\C/C=C\C/C=C\CCC(=O)O[C@H](COC(=O)CCCCCCC/C=C\CCCCCCC)COP(=O)(O)OC[C@@H](O)CO` [PG 17:1@_22:6], the “TIMS collisional cross section” value (sample type: Human plasma, ion (formula + adduct): [C45H75O10P+OAcO] 1-) came to 294.7 Å². Regarding `CCCCC/C=C\C/C=C\CCCC/C=C\CCCC(=O)O[C@H](COC(=O)CCCCCCCCCCCCCCCCC)COP(=O)([O-])OCC[N+](C)(C)C` [PC 18:0_20:3], the “TIMS collisional cross section” value (sample type: Human plasma, ion (formula + adduct): [C46H86NO8P+HCOO] 1-) amounted to 300.6 Å² and the “TIMS collisional cross section” value (sample type: Mouse Liver, ion (formula + adduct): [C46H86NO8P+HCOO] 1-) was 300 Å². Take `CCCCCCCCCCCCCCCCCCCCCC(=O)O[C@H](COC(=O)CCCCCCCCCCCCCCCC)COP(=O)(O)O` [PA 17:0_22:0@]: the “TIMS collisional cross section” value (sample type: Human plasma, ion (formula + adduct): [C42H83O8P-CH3] 1-) was 286.6 Å².

For `CCCCCCCCCCCCCCCC(=O)O[C@H](COC(=O)CCCCCCCCCCCCC)COP(=O)([O-])OCC[N+](C)(C)C` [PC 14:0_16:0@], the “TIMS collisional cross section” value (sample type: Mouse Liver, ion (formula + adduct): [C38H76NO8P+HCOO] 1-) came to 283.8 Å². Take `CCCCC/C=C\CCCCCCCC(=O)OC[C@H](COP(=O)([O-])OCC[N+](C)(C)C)OC(=O)CCCCCCCCC/C=C\CCCCCCCC` [PC 15:1@_20:1]: the “TIMS collisional cross section” value (sample type: Mouse Liver, ion (formula + adduct): [C43H82NO8P-H] 1-) is 279.1 Å². As for `CCCCCCCCCCCCCCCCCCC(=O)OC[C@H](COP(=O)([O-])OCC[N+](C)(C)C)OC(C)=O` [PC 19:0@_2:0], where the note is “sample type: Human plasma, ion (formula + adduct): [C29H58NO8P-H] 1-”, the “TIMS collisional cross section” value was 244.4 Å². For `CCCCCCCCCCCCCCCCCC(=O)OC[C@H](COP(=O)(O)OCCN)OC(=O)CCCCCCCCCCCCCCC` [PE 18:0_16:0], where the note is “sample type: Mouse Liver, ion (formula + adduct): [C39H78NO8P-H] 1-”, the “TIMS collisional cross section” value was 269.5 Å². Take `CC/C=C\C/C=C\C/C=C\C/C=C\C/C=C\C/C=C\CCC(=O)OC[C@@H](O)COP(=O)(O)OC[C@H](N)C(=O)O` [LPS 22:6]: for the setting “sample type: Mouse Liver, ion (formula + adduct): [C28H44NO9P-H] 1-”, the “TIMS collisional cross section” value came to 230.2 Å².
